{"source": "PubChem BioAssay AID1752", "about": "(Sanford-Burnham Center for Chemical Genomics, 2009)", "note": "Where “and” joins values, the source holds several entries; their conditions need not be identical. Identical values can stand only once. Calls of active or inactive are those of the source. The rule behind the calls is not given here."}
{"test_system": "PPC-1 cells, TRAIL-induced apoptosis potentiation", "test": "TRAIL sensitization of PPC-1 cells, potency – analog series, SAR follow-up (AID 1752)"}
{"smiles": "CCSc1nc(-c2ccccc2)cc(=O)[nH]1", "IC50": "> 10 µM (inactive)"}
{"smiles": "CSc1nc(-c2ccccc2)nc(-c2ccccc2OC(C)=O)n1", "IC50": "> 10 µM (inactive)"}
{"smiles": "CC(Sc1nc(-c2ccccc2)cc(C(F)(F)F)n1)C(=O)N1CCCC1", "note": "(stereo not drawn)", "IC50": "> 10 µM (inactive)"}
{"smiles": "CSc1nc(-c2ccccc2)nc(-c2ccccc2)n1", "IC50": "> 10 µM (inactive)"}
{"smiles": "CSc1nc(-c2ccccc2)nc(C(C)C)n1", "IC50": "> 10 µM (inactive)"}
{"smiles": "CSc1nc(-c2ccc(C)cc2)nc(C(Cl)Cl)n1", "IC50": "0.372 µM and 0.602 µM"}
{"smiles": "CCSc1cc(N2CCCC2)nc(-c2ccc(Cl)cc2)n1", "IC50": "> 10 µM (inactive)"}
{"smiles": "COc1cc(-c2ccccc2)[nH]c(=S)n1", "IC50": "> 10 µM (inactive)"}
